The values below come from US4218453A, “N-Substituted hexahydro-6-canthinones for treating cardio-circulatory, cerebrovascular, and respiratory dysfunction” (priority 1976, dated 1980).

Data set [1] can be described thus: Acute toxicity, intragastric route, mice (LD50, Lichtfield and Wilcoxon). The settings on record: mouse, in vivo, po. Here is the method:
The compounds of the invention and vincamine also were administered by intragastric route to Charles River stock mice. The lethal doses for 50% (LD50) were determined graphically according to the method of Lichtfield and Wilcoxon (J. Pharmacol. Exp. Therap. […], 96, 99).

A further data set has as its system Charles River stock mice. Put plainly: Hypobaric anoxia test on mice (survival time). The data set is classed as in vivo. Particulars: for activity relative to vincamine: comparison on the basis of fractions of LD50. Here is the method:
Charles River stock mice of the same sex, weighting about 20±2 g are shared into three lots of 10 animals each. The lots 1 and 2 comprise treated animals, i.e. those having received either a substance to be tested or vincamine, together with solvent, at 1 ml/100 g of body weight. The third lot comprises control animals i.e. those having only received solvent at 1 ml/100 g of body weight.
The compounds examined were administered by intragastric route 15 minutes before the experiment. The doses as applied correspond to 1/5, 1/10, 1/20 of the LD50 for the compounds of the invention and 1/5 of LD50 for vincamine.
The animals were placed in an atmosphere impoverished in oxygen by creating a partial vacuum (190 mm Hg, corresponding to 5.25% oxygen), in about 30 seconds.
The survival time of the mice was measured with a chronometer. Said time is increased by the agents capable of enhancing oxygenation of tissues and more particularly brain oxygenation.
The percentages of survival time increase with respect to the values obtained for the control animals are calculated.

As to `CN1CCc2c3n(c4ccccc24)C(=O)CCC31` (stereo not drawn) [OC-330], the LD50 (commonly the dose at which mortality reaches 50%) in data set [1] (mice) is 310 mg/kg. In addition, the “Variation % (survival time increase vs control)” value in the data set on Charles River stock mice (Table II, 1st experiment, 60 mg/kg or LD50/5, intragastric 15 min before) worked out at 212%; in the data set with Charles River stock mice (Table II, 2nd experiment, 30 mg/kg or LD50/5 (so in the source)), 71%. Further, the Survival time is given as 122 (± 4) sec with Charles River stock mice (Table II, 1st experiment, 60 mg/kg or LD50/5, intragastric 15 min before, control 39 (± 2)) and 67 (± 3) sec with Charles River stock mice (Table II, 2nd experiment, 30 mg/kg or LD50/5 (so in the source), control 39 (± 3)). The “effect compared with vincamine at 1/5 LD50” value with Charles River stock mice (at doses corresponding to 1/10 LD50 for mice (p.o.)) is “exerts an effect whose intensity is comparable to vincamine at 1/5 LD50”. Also, the “activity relative to vincamine” value with Charles River stock mice was “about two times more active than vincamine”.
`CC[C@]12CCCN3CCc4c(n(c5ccccc45)[C@@](O)(C(=O)OC)C1)[C@@H]32` [Vincamine, vincamine, reference compound]: the LD50 in data set [1] (mice) was 970 mg/kg. Also, the “Variation % (survival time increase vs control)” value is 67% in the data set on Charles River stock mice (Table II, 1st experiment, vincamine 200 mg/kg, LD50/5); 67% with Charles River stock mice (Table II, 2nd experiment, vincamine 200 mg/kg or LD50/5); 67% in the data set on Charles River stock mice (Table III, 1st experiment, vincamine 200 mg/kg or LD50/5); 67% in the data set with Charles River stock mice (Table III, 2nd experiment, vincamine 200 mg/kg or LD50/5); 59% in the data set with Charles River stock mice (Table III, 3rd experiment, vincamine 200 mg/kg or LD50/5); 77% with Charles River stock mice (Table IV, vincamine 200 mg/kg or LD50/5). Further, the Survival time is 65 (± 1) sec in the data set with Charles River stock mice (Table II, 1st experiment, vincamine 200 mg/kg, LD50/5, control 39 (± 2)); 65 (± 2) sec with Charles River stock mice (Table II, 2nd experiment, vincamine 200 mg/kg or LD50/5, control 39 (± 3)); 65 (± 3) sec with Charles River stock mice (Table III, 1st experiment, vincamine 200 mg/kg or LD50/5, control 39 (± 2)); 65 (+ 1) sec in the data set on Charles River stock mice (Table III, 2nd experiment, vincamine 200 mg/kg or LD50/5, control 39 (± 1)); 52 (± 1) sec in the data set on Charles River stock mice (Table III, 3rd experiment, vincamine 200 mg/kg or LD50/5, control 39 (± 1)); 62 (± 4) sec in the data set on Charles River stock mice (Table IV, vincamine 200 mg/kg or LD50/5, control 35 (± 3)).
Molecule `CN1CCc2c3n(c4c(O)cccc24)C(=O)CCC31` (stereo not drawn) [OC-332] had an LD50 in data set [1] of 527 mg/kg. Further, the “Variation % (survival time increase vs control)” value with Charles River stock mice (Table IV, 100 mg/kg or LD50/5) came out at 117%. The Survival time with Charles River stock mice (Table IV, 100 mg/kg or LD50/5, control 35 (± 3)) is 76 (± 1) sec. In the data set on Charles River stock mice (at equally toxic dose), the “effect relative to vincamine” value is reported as “about 1.5 times higher”.
In data set [1] (mice), `CCN1CCc2c3n(c4ccccc24)C(=O)CCC31` (stereo not drawn) [OC-331, 3-ethyl-1,2,3,3a,4,5-hexahydro-6-canthinone] yielded a median lethal dose (LD50) of 411 mg/kg. Also, the “Variation % (survival time increase vs control)” value with Charles River stock mice (Table III, 1st experiment, 80 mg/kg or LD50/5) was 214%; with Charles River stock mice (Table III, 2nd experiment, 40 mg/kg or LD50/10), 105%; in the data set on Charles River stock mice (Table III, 3rd experiment, 20 mg/kg or LD50/20), 75%. Besides, the Survival time with Charles River stock mice (Table III, 1st experiment, 80 mg/kg or LD50/5, control 39 (± 2)) is reported as 122 (± 1) sec; in the data set on Charles River stock mice (Table III, 2nd experiment, 40 mg/kg or LD50/10, control 39 (± 1)), 80 (± 3) sec; with Charles River stock mice (Table III, 3rd experiment, 20 mg/kg or LD50/20, control 39 (± 1)), 57 (± 4) sec. The “effect compared with vincamine at 1/5 LD50” value in the data set with Charles River stock mice (at doses corresponding to 1/20 LD50 for mice (p.o.)) is on record as “exerts an effect comparable to vincamine at 1/5 LD50”. In addition, the “activity relative to vincamine” value in the data set with Charles River stock mice is reported as “about four times more active than vincamine”.
